Consider 15 compounds from patent US20260042743A1, “SUBSTITUTED BENZIMIDAZOLES FOR TREATING VIRAL DISEASES” (COUNCIL OF SCIENTIFIC AND INDUSTRIAL RESEARCH, priority 2022, published 2026).

The test system of the test is SARS-CoV-2. The test is described as follows: cell-based anti-viral assay using Vero E6 cell line, viral RNA by qRT-PCR. The following applies: Vero E6 cells, 48 h; for ΔCt (1 μM) / inhibition at 1 µM: 1 μM compound; for ΔCt (1 μM) / ΔCt (5 μM): increase in Ct vs no-drug control; for ΔCt (5 μM) / inhibition at 5 µM: 5 μM compound; for inhibition at 1 µM / inhibition at 5 µM: Severe acute respiratory syndrome coronavirus 2, Vero C1008, calculated from ΔCt; for inhibition at 1 µM: read-out: % SARS-CoV-2 Inactivation (1 μM); for inhibition at 5 µM: read-out: % SARS-CoV-2 Inactivation (5 μM).

Regarding `FC(F)(F)c1cc(C(F)(F)F)c2nc(Nc3cccnc3)[nH]c2c1` [Example 5, N-(pyridin-3-yl)-4,6-bis(trifluoromethyl)-1H-benzo[d]imidazol-2-amine], the “ΔCt (1 μM)” value turned out to be 1, the “ΔCt (5 μM)” value is on record as 1.2, the inhibition at 1 µM is under 3% and the inhibition at 5 µM was under 3%.
As to `CC(C)c1ccccc1Nc1nc2c(C(F)(F)F)cc(C(F)(F)F)cc2[nH]1` [Example 18, N-(2-isopropylphenyl)-4,6-bis(trifluoromethyl)-1H-benzo[d]imidazol-2-amine], the “ΔCt (1 μM)” value was 1.4, the “ΔCt (5 μM)” value is 1.4, the inhibition at 1 µM was under 3% and the inhibition at 5 µM is under 3%.
In the case of `CN(c1cccc(C(F)(F)F)c1)c1nc2cccc(C(F)(F)F)c2[nH]1` [Example 42, N-methyl-7-(trifluoromethyl)-N-(3-(trifluoromethyl)phenyl)-1H-benzo[d]imidazol-2-amine], the “ΔCt (1 μM)” value worked out at 1, the “ΔCt (5 μM)” value is 2.1, the inhibition at 1 µM was under 3% and the inhibition at 5 µM is under 3%.
Take `FC(F)(F)Oc1cccc(Nc2nc3c(C(F)(F)F)cc(C(F)(F)F)cc3[nH]2)c1` [Example 22, N-(3-(trifluoromethoxy)phenyl)-4,6-bis(trifluoromethyl)-1H-benzo[d]imidazol-2-amine]: the “ΔCt (1 μM)” value worked out at 3.3, the “ΔCt (5 μM)” value stood at 7.4, the inhibition at 1 µM was 90% and the inhibition at 5 µM was 99%.
Taken in the same sequence, the figures for `C[C@@H](Nc1nc2c(C(F)(F)F)cc(C(F)(F)F)cc2[nH]1)c1cccc2ccccc12` [Example 19, (R)—N-(1-(naphthalen-1-yl)ethyl)-4,6-bis(trifluoromethyl)-1H-benzo[d]imidazol-2-amine] were 1.9, 1.9, under 3% and under 3%.
For the compound `Fc1ccccc1Nc1nc2c(C(F)(F)F)cc(C(F)(F)F)cc2[nH]1` [Example 23, N-(2-fluorophenyl)-4,6-bis(trifluoromethyl)-1H-benzo[d]imidazol-2-amine], the “ΔCt (1 μM)” value was −0.3, the “ΔCt (5 μM)” value is on record as 5.2, the inhibition at 1 µM is under 3% and the inhibition at 5 µM was over 95%.
In the case of `CC(C)Nc1nc2c(C(F)(F)F)cc(C(F)(F)F)cc2[nH]1` [Example 15, N-isopropyl-4,6-bis(trifluoromethyl)-1H-benzo[d]imidazol-2-amine], the “ΔCt (1 μM)” value is on record as 3.1, the “ΔCt (5 μM)” value worked out at 4.2, the inhibition at 1 µM is 90% and the inhibition at 5 µM was over 90%.
In the case of `FC(F)(F)c1cc(C(F)(F)F)c2nc(Nc3ccccc3)[nH]c2c1` [Example 3, N-phenyl-4,6-bis(trifluoromethyl)-1H-benzo[d]imidazol-2-amine], the “ΔCt (1 μM)” value is given as 1.8, the “ΔCt (5 μM)” value is reported as 3.3, the inhibition at 1 µM is under 3% and the inhibition at 5 µM was 90%.
Taken in the same sequence, the figures for `Fc1cc(F)cc(Nc2nc3c(C(F)(F)F)cc(C(F)(F)F)cc3[nH]2)c1` [Example 26, N-(3,5-difluorophenyl)-4,6-bis(trifluoromethyl)-1H-benzo[d]imidazol-2-amine] were 3.4, 9.4, 90% and over 99%.
Taken in the same sequence, the figures for `Fc1cc2nc(NCc3ccccc3)[nH]c2cc1F` [Example 13, N-benzyl-5,6-difluoro-1H-benzo[d]imidazol-2-amine] were 1.3, 1, under 3% and under 3%.
The corresponding values for `FC(F)(F)c1cccc(Nc2nc3c(C(F)(F)F)cc(C(F)(F)F)cc3[nH]2)c1` [Example 14, 4,6-bis(trifluoromethyl)-N-(3-(trifluoromethyl)phenyl)-1H-benzo[d]imidazol-2-amine] are 7.4, 16, 99% and 100%.
On to `CN(c1cc(C(F)(F)F)cc(C(F)(F)F)c1)c1nc2c(C(F)(F)F)cc(C(F)(F)F)cc2[nH]1` [Example 41, N-(3,5-bis(trifluoromethyl)phenyl)-N-methyl-4,6-bis(trifluoromethyl)-1H-benzo[d]imidazol-2-amine], for which the “ΔCt (1 μM)” value turned out to be 3.8, the “ΔCt (5 μM)” value is listed as 13.4, the inhibition at 1 µM is over 90% and the inhibition at 5 µM is over 99.9%.
Consider `FC(F)(F)c1cc(C(F)(F)F)c2nc(Nc3ccc(Cl)cc3)[nH]c2c1` [Example 2, N-(4-chlorophenyl)-4,6-bis(trifluoromethyl)-1H-benzo[d]imidazol-2-amine], for which the “ΔCt (1 μM)” value is given as 4.4, the “ΔCt (5 μM)” value is 6, the inhibition at 1 µM is over 90% and the inhibition at 5 µM was over 95%.
For the compound `FC(F)(F)c1cccc(Nc2nc3c(C(F)(F)F)cccc3[nH]2)c1` [Example 35, 4-(trifluoromethyl)-N-(3-(trifluoromethyl)phenyl)-1H-benzo[d]imidazol-2-amine], the “ΔCt (1 μM)” value turned out to be 1.7, the “ΔCt (5 μM)” value is 7.5, the inhibition at 1 µM was under 3% and the inhibition at 5 µM is 99%.
Regarding `CN(c1ccc(C(F)(F)F)cc1)c1nc2cccc(C(F)(F)F)c2[nH]1` [Example 43, N-methyl-7-(trifluoromethyl)-N-(4-(trifluoromethyl)phenyl)-1H-benzo[d]imidazol-2-amine], the “ΔCt (1 μM)” value is recorded as 1.8, the “ΔCt (5 μM)” value is 3.6, the inhibition at 1 µM is under 3% and the inhibition at 5 µM was over 90%.
